# Where “and” joins values, the source holds several entries; their conditions need not be identical. Equal entries are not always repeated.
# Key:
# Assay type in all cases: cell-based
# 320 non-olfactory GPCRs [1] = target: T1, 320 non-olfactory GPCRs (Homo sapiens, UniProt Q8TDS5); conditions: receptor OXER1; replicate values, Fig_4g
# T1 construct: expressed in transfected cells; host or cells: HTLA cells
# 320 non-olfactory GPCRs [2] = target: 320 non-olfactory GPCRs (Homo sapiens, UniProt P21918)
# Chain of 320 non-olfactory GPCRs (Homo sapiens, UniProt P21918) (P21918 whole entry): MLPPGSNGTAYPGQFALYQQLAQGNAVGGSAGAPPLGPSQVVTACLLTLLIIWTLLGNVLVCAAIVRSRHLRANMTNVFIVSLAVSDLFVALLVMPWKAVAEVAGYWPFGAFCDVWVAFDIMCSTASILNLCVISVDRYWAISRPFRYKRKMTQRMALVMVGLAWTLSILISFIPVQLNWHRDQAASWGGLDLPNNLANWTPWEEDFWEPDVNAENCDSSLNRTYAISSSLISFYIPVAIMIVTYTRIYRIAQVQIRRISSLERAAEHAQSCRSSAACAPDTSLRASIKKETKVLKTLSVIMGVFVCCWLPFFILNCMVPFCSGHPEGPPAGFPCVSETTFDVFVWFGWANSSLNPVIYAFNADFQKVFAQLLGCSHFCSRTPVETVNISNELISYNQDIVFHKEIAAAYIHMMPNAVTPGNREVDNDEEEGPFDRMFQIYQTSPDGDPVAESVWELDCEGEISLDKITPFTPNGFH
# 320 non-olfactory GPCRs [3] = target: T2, 320 non-olfactory GPCRs (Homo sapiens, UniProt P25105); conditions: receptor PTAFR; replicate values, Fig_4g
# T2 construct: expressed in transfected cells; host or cells: HTLA cells
# T2 sequence (P25105 whole entry): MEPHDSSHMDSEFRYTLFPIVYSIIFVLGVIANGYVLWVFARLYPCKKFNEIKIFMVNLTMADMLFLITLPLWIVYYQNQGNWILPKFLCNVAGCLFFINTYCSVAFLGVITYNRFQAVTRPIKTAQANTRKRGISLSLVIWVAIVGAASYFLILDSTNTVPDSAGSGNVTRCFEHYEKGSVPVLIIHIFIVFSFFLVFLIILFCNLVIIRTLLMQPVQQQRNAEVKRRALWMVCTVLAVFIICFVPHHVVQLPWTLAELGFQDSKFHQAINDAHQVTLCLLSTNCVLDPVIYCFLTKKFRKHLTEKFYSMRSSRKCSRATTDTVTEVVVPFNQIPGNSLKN
# 320 non-olfactory GPCRs [4] = target: T3, 320 non-olfactory GPCRs (Homo sapiens, UniProt P35348)
# T3 construct: expressed in transfected cells; host or cells: HTLA cells
# T3 sequence (P35348 whole entry): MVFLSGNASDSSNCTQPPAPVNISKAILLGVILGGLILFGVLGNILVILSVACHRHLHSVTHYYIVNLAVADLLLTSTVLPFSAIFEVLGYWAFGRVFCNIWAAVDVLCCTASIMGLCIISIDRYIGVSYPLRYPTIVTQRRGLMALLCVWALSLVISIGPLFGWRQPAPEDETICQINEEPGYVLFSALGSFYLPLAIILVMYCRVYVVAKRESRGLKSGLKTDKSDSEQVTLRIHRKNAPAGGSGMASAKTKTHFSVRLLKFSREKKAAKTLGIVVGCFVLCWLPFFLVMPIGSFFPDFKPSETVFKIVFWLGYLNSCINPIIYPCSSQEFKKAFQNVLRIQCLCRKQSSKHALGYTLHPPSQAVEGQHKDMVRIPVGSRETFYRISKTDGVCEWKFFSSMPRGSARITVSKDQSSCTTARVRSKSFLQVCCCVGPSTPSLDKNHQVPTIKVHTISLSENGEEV
# 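Wherever Fold of Basal is given: compound tested at 1 µM final concentration.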
# 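Wherever GPCRome agonism screen response is given: fold over basal response of each receptor without drug.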
# T1 sequence (Q8TDS5 whole entry): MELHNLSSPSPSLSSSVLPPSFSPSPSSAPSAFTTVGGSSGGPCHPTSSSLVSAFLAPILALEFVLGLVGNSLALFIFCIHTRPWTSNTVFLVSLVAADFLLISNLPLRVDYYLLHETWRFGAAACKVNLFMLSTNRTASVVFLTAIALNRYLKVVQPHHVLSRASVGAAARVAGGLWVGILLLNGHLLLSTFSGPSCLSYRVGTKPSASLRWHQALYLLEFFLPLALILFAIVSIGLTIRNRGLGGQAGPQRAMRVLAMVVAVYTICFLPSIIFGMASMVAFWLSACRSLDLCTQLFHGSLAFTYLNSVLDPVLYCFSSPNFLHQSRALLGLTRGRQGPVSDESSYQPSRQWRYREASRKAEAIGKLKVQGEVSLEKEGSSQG
compound,measurement,setting,value
CCOc1cccc2cc(C(C)NCC3(O)CCCCC3)oc12 (stereo not shown) [O4LE6],GPCRome agonism screen response,320 non-olfactory GPCRs [1],0.5177 and 0.9727 and 1.432 and 1.135
same,Fold of Basal,320 non-olfactory GPCRs [2],1.173 and 0.6004 and 0.7155 and 0.7884
same,GPCRome agonism screen response,320 non-olfactory GPCRs [3],0.04948 and 0.5552 and 0.8041
same,Fold of Basal,320 non-olfactory GPCRs [4],1.536 and 0.8942 and 1.241 and 1.268
